Among the data in US20240174744A1, “METHODS OF TREATMENT USING PROTEIN BINDERS TO IRHOM2 EPITOPES” (SCIRHOM GMBH, priority 2021, published 2024) are inhibition values, retold here.

The experiment has as its system PMA-induced release of IL-6R from PBMCs from healthy donors. The experiment is described as follows: ELISA-based IL-6R release assay, PBMCs from healthy donors. The class given is cell-based. Conditions: Homo sapiens, PBMC; recombinant murine antibodies 1 μg/ml; Batimastat 10 μM; PMA 25 ng/ml, 6 hours. The method, then:
In the following study, ELISA-based IL-6R release assays were performed to analyze the inhibitory effects of the antibodies of the present disclosure on PMA-induced release of endogenous IL-6R from primary human material obtained from healthy donors using peripheral blood mononuclear cells (PBMCs).
In brief, on day 1, Nunc black MaxiSorp® 96-well plates (Thermo Fisher Scientific, USA) were coated overnight with 100 μl per well of mouse anti-human IL-6R capture antibody (provided as part of the DuoSet ELISA kit) at 4 μg/ml TBS at 4° C. On day 2, the capture antibody solution was removed and MaxiSorp® plates were blocked with 300 μl per well of TBS, 1% BSA at room temperature for 3 hours. […] Using an infinite M1000 (Tecan Group, Switzerland) microplate reader, the fluorescence of each well was collected at an excitation wavelength of 435 nm and an emission wavelength of 555 nm.

For the molecule `CNC(=O)[C@H](Cc1ccccc1)NC(=O)[C@H](CC(C)C)[C@H](CSc1cccs1)C(=O)NO` [Batimastat], the inhibition at 10 µM was determined as 114%.
